{"source": "the NIST ThermoML archive (doi:10.1016/j.tca.2007.07.015)", "assay": "excess molar enthalpy (molar enthalpy of mixing); xn = mol fraction of the nth substance listed", "conditions": "973 K, Liquid, Calvet calorimetry", "note": "Numbers after ± are expanded uncertainties.", "data": [{"smiles": "[Pb]", "note": "[lead] + [Ag]", "values": [{"measurement": "excess molar enthalpy", "setting": "101.3 kPa, x2 = 0.2", "result": "0.555 ± 0.0287", "unit": "kcal/mol"}]}, {"smiles": "[Pb]", "note": "[lead] + [Au]", "values": [{"measurement": "excess molar enthalpy", "setting": "101 kPa, x2 = 0.0446", "result": "-0.0574 ± 0.00287", "unit": "kcal/mol"}, {"measurement": "excess molar enthalpy", "setting": "101 kPa, x2 = 0.0465", "result": "-0.0433 ± 0.00215", "unit": "kcal/mol"}, {"measurement": "excess molar enthalpy", "setting": "101 kPa, x2 = 0.0726", "result": "-0.0915 ± 0.00454", "unit": "kcal/mol"}, {"measurement": "excess molar enthalpy", "setting": "101 kPa, x2 = 0.0864", "result": "-0.111 ± 0.00574", "unit": "kcal/mol"}, {"measurement": "excess molar enthalpy", "setting": "101 kPa, x2 = 0.0922", "result": "-0.0825 ± 0.0043", "unit": "kcal/mol"}, {"measurement": "excess molar enthalpy", "setting": "101 kPa, x2 = 0.1272", "result": "-0.151 ± 0.00765", "unit": "kcal/mol"}, {"measurement": "excess molar enthalpy", "setting": "101 kPa, x2 = 0.1358", "result": "-0.127 ± 0.00645", "unit": "kcal/mol"}, {"measurement": "excess molar enthalpy", "setting": "101 kPa, x2 = 0.1368", "result": "-0.154 ± 0.00789", "unit": "kcal/mol"}, {"measurement": "excess molar enthalpy", "setting": "101 kPa, x2 = 0.1653", "result": "-0.174 ± 0.00884", "unit": "kcal/mol"}, {"measurement": "excess molar enthalpy", "setting": "101 kPa, x2 = 0.1768", "result": "-0.159 ± 0.00813", "unit": "kcal/mol"}, {"measurement": "excess molar enthalpy", "setting": "101 kPa, x2 = 0.1938", "result": "-0.189 ± 0.00956", "unit": "kcal/mol"}, {"measurement": "excess molar enthalpy", "setting": "101 kPa, x2 = 0.2", "result": "-0.212 ± 0.0108", "unit": "kcal/mol"}, {"measurement": "excess molar enthalpy", "setting": "101 kPa, x2 = 0.2003", "result": "-0.202 ± 0.0103", "unit": "kcal/mol"}, {"measurement": "excess molar enthalpy", "setting": "101 kPa, x2 = 0.2148", "result": "-0.187 ± 0.00956", "unit": "kcal/mol"}, {"measurement": "excess molar enthalpy", "setting": "101 kPa, x2 = 0.2333", "result": "-0.209 ± 0.0105", "unit": "kcal/mol"}, {"measurement": "excess molar enthalpy", "setting": "101 kPa, x2 = 0.2482", "result": "-0.212 ± 0.0108", "unit": "kcal/mol"}, {"measurement": "excess molar enthalpy", "setting": "101 kPa, x2 = 0.2506", "result": "-0.204 ± 0.0103", "unit": "kcal/mol"}, {"measurement": "excess molar enthalpy", "setting": "101 kPa, x2 = 0.2652", "result": "-0.228 ± 0.0115", "unit": "kcal/mol"}, {"measurement": "excess molar enthalpy", "setting": "101 kPa, x2 = 0.2841", "result": "-0.22 ± 0.0112", "unit": "kcal/mol"}, {"measurement": "excess molar enthalpy", "setting": "101 kPa, x2 = 0.2962", "result": "-0.24 ± 0.0122", "unit": "kcal/mol"}, {"measurement": "excess molar enthalpy", "setting": "101 kPa, x2 = 0.2966", "result": "-0.228 ± 0.0115", "unit": "kcal/mol"}, {"measurement": "excess molar enthalpy", "setting": "101 kPa, x2 = 0.3161", "result": "-0.222 ± 0.0112", "unit": "kcal/mol"}, {"measurement": "excess molar enthalpy", "setting": "101 kPa, x2 = 0.3226", "result": "-0.244 ± 0.0124", "unit": "kcal/mol"}, {"measurement": "excess molar enthalpy", "setting": "101 kPa, x2 = 0.3436", "result": "-0.235 ± 0.012", "unit": "kcal/mol"}, {"measurement": "excess molar enthalpy", "setting": "101 kPa, x2 = 0.3455", "result": "-0.232 ± 0.0117", "unit": "kcal/mol"}, {"measurement": "excess molar enthalpy", "setting": "101 kPa, x2 = 0.3733", "result": "-0.235 ± 0.012", "unit": "kcal/mol"}, {"measurement": "excess molar enthalpy", "setting": "101 kPa, x2 = 0.3862", "result": "-0.239 ± 0.0122", "unit": "kcal/mol"}, {"measurement": "excess molar enthalpy", "setting": "101 kPa, x2 = 0.4", "result": "-0.257 ± 0.0129", "unit": "kcal/mol"}, {"measurement": "excess molar enthalpy", "setting": "101 kPa, x2 = 0.402", "result": "-0.241 ± 0.0122", "unit": "kcal/mol"}, {"measurement": "excess molar enthalpy", "setting": "101 kPa, x2 = 0.4248", "result": "-0.241 ± 0.0122", "unit": "kcal/mol"}, {"measurement": "excess molar enthalpy", "setting": "101 kPa, x2 = 0.4294", "result": "-0.248 ± 0.0127", "unit": "kcal/mol"}, {"measurement": "excess molar enthalpy", "setting": "101 kPa, x2 = 0.4416", "result": "-0.249 ± 0.0127", "unit": "kcal/mol"}]}]}
